Data taken from ChEMBL document CHEMBL3259786, “Quinazolines: new horizons in anticonvulsant therapy” (Eur J Med Chem, 2014).

Legend:
[1] = tested on: Mus musculus; test: Anticonvulsant activity in ip dosed mouse by MES test; assay type: functional
[2] = Toxicity in ip dosed mouse; assay type: organism-based; conditions: in vivo
[3] = species on record: Mus musculus; test: Anticonvulsant activity in mouse by MES test; assay type: functional
[4] = tested on: Mus musculus; test: Anticonvulsant activity in po dosed albino mouse measured after 60 mins by MES test; assay type: functional
[5] = Acute toxicity in po dosed mouse; assay type: organism-based; conditions: in vivo

Row | Structure (SMILES) | Activity [1] [%] | LD50 [2] [mg/kg] | ED50 [3] [mg/kg] | PD50 [4] [µmol/kg] | LD50 [5] [mg/kg]
1 | c1ccc(CN(Cc2ccccc2)c2nc(N(Cc3ccccc3)Cc3ccccc3)c3ccccc3n2)cc1 | 50 | 400 |  |  | 
2 | Nc1nnc2c3ccccc3nc(-c3ccccc3Br)n12 |  |  | 27.4 |  | 
3 | CCSc1nc(=O)c2ccccc2[nH]1 | 60 | 1000 |  |  | 
4 | O=C(CNc1ccc(Cl)cc1)Nn1c(COc2ccc(Cl)cc2Cl)nc2ccccc2c1=O |  |  |  | 200.53 | > 3000
